The source made the active and inactive calls. The calls are words filed in the database; no cut-off is given here.
Target: T1, Cannabinoid receptor 2 (Homo sapiens, UniProt P34972)
Assay: Agonist activity at human CB2 receptor expressed in CHO-K1 cells co-transfected with human Galpha16 assessed as intracellular calcium flux
Format: functional, cell-based
Conditions: not given

T1 sequence (P34972 whole entry): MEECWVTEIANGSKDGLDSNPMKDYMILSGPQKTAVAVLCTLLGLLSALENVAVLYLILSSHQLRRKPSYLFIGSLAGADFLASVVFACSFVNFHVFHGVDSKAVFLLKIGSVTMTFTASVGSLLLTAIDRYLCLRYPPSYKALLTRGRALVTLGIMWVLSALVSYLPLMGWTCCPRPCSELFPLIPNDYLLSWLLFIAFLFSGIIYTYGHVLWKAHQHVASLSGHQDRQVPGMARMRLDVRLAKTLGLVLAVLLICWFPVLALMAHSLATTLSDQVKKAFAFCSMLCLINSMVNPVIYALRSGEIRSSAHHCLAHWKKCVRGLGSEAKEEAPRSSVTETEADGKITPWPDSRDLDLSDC

| SMILES | EC50 [µM] |
| --- | --- |
| CCCCCn1nc(C(=O)NC(C)(C)CO)cc1-c1ccsc1 | 0.141 |
| CCCCCn1nc(-c2cccn2CC)cc1C(=O)NC(C)(C)CO | > 100 |
| CCCCCn1nc(C(=O)NC(C)(C)CO)cc1-c1ccc(Cl)s1 | > 100 |
| CCCCCn1nc(C(=O)NC(C)(C)CO)cc1-c1nccs1 | > 100 |
| CCCCn1nc(C(=O)NC(C)(C)CO)cc1-c1ccn(C)c1 | > 100 |
| CCCCCCn1nc(C(=O)NC(C)(C)CO)cc1-c1cccs1 | 0.0195 |
| CCCCCn1nc(-c2ccco2)cc1C(=O)NC(C)(C)CO | > 100 |
| COCCn1nc(C(=O)NC(C)(C)CO)cc1-c1cccs1 | 0.128 |

Target: T2, Cannabinoid receptor 1 (Homo sapiens, UniProt P21554)
Assay: Antagonist activity at human CB1 receptor expressed in CHO-K1 cells co-transfected with human Galpha16 assessed as intracellular calcium flux
Format: functional, cell-based
Conditions: not given

T2 sequence (P21554 whole entry): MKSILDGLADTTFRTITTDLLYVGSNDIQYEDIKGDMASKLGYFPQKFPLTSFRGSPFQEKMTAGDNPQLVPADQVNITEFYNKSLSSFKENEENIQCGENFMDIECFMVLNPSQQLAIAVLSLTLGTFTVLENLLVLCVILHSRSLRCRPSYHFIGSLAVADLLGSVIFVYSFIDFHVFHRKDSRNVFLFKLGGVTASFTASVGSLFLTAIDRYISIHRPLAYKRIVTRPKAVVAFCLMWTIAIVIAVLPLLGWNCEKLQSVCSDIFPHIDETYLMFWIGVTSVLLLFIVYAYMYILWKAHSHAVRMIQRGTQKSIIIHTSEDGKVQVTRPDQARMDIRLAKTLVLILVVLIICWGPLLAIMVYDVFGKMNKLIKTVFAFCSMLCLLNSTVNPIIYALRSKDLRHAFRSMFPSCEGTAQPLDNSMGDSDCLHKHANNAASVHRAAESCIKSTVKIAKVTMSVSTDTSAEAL

| SMILES | IC50 [µM] |
| --- | --- |
| CCCCCn1nc(C(=O)NC(C)(C)CO)cc1-c1ccsc1 | > 100 |
| CCCCCn1nc(-c2cccn2CC)cc1C(=O)NC(C)(C)CO | > 100 |
| CCCCCn1nc(C(=O)NC(C)(C)CO)cc1-c1ccc(Cl)s1 | > 100 |
| CCCCCn1nc(C(=O)NC(C)(C)CO)cc1-c1nccs1 | > 100 |
| CCCCn1nc(C(=O)NC(C)(C)CO)cc1-c1ccn(C)c1 | > 100 |
| CCCCCCn1nc(C(=O)NC(C)(C)CO)cc1-c1cccs1 | > 100 |
| CCCCCn1nc(-c2ccco2)cc1C(=O)NC(C)(C)CO | > 100 |
| COCCn1nc(C(=O)NC(C)(C)CO)cc1-c1cccs1 | > 100 |

Target: T1, Cannabinoid receptor 2
Assay: Agonist activity at human CB2 receptor expressed in CHO-K1 cells co-transfected with human Galpha16 assessed as intracellular calcium flux at 10 uM
Format: functional, cell-based
Conditions: not given

| SMILES | Activity |
| --- | --- |
| CCCCn1nc(C(=O)NC(C)(C)CO)cc1-c1ccn(C)c1 | inactive |

Same assay, conditions: filed as agonist

| SMILES | Activity |
| --- | --- |
| COCCn1nc(C(=O)NC(C)(C)CO)cc1-c1cccs1 | Active |

Target: T1, Cannabinoid receptor 2
Assay: Agonist activity at human CB2 receptor expressed in CHO-K1 cells co-transfected with human Galpha16 assessed as intracellular calcium flux at 10 uM relative to control
Format: functional, cell-based
Conditions: filed as agonist

| SMILES | Emax [%] |
| --- | --- |
| CCCCCn1nc(C(=O)NC(C)(C)CO)cc1-c1ccsc1 | 50 |
| CCCCCCn1nc(C(=O)NC(C)(C)CO)cc1-c1cccs1 | 72 |
| COCCn1nc(C(=O)NC(C)(C)CO)cc1-c1cccs1 | 46 |

Target: T1, Cannabinoid receptor 2
Assay: Antagonist activity at human CB2 receptor expressed in CHO-K1 cells co-transfected with human Galpha16 assessed as intracellular calcium flux
Format: functional, cell-based
Conditions: not given

| SMILES | IC50 [µM] |
| --- | --- |
| CCCCCn1nc(C(=O)NC(C)(C)CO)cc1-c1ccsc1 | > 100 |
| CCCCCn1nc(C(=O)NC(C)(C)CO)cc1-c1ccc(Cl)s1 | 0.0322 |
| CCCCCn1nc(C(=O)NC(C)(C)CO)cc1-c1nccs1 | > 100 |
| CCCCn1nc(C(=O)NC(C)(C)CO)cc1-c1ccn(C)c1 | > 100 |
| CCCCCCn1nc(C(=O)NC(C)(C)CO)cc1-c1cccs1 | > 100 |
| COCCn1nc(C(=O)NC(C)(C)CO)cc1-c1cccs1 | > 100 |

Target: T2, Cannabinoid receptor 1
Assay: Agonist activity at human CB1 receptor expressed in CHO-K1 cells co-transfected with human Galpha16 assessed as intracellular calcium flux
Format: functional, cell-based
Conditions: not given

| SMILES | EC50 [µM] |
| --- | --- |
| CCCCCn1nc(C(=O)NC(C)(C)CO)cc1-c1ccsc1 | > 100 |
| CCCCCn1nc(-c2cccn2CC)cc1C(=O)NC(C)(C)CO | > 100 |
| CCCCCn1nc(C(=O)NC(C)(C)CO)cc1-c1ccc(Cl)s1 | > 100 |
| CCCCCn1nc(C(=O)NC(C)(C)CO)cc1-c1nccs1 | > 100 |
| CCCCn1nc(C(=O)NC(C)(C)CO)cc1-c1ccn(C)c1 | > 100 |
| CCCCCCn1nc(C(=O)NC(C)(C)CO)cc1-c1cccs1 | > 100 |
| CCCCCn1nc(-c2ccco2)cc1C(=O)NC(C)(C)CO | > 100 |
| COCCn1nc(C(=O)NC(C)(C)CO)cc1-c1cccs1 | > 100 |

From ChEMBL document CHEMBL6078695, “Design, synthesis, and biological evaluations of 5-aryl-pyrazole-3-carboxamide derivatives as selective CB2 receptor agonists for the treatment of colitis” (Eur J Med Chem, 2025)
